Data on one compound can be found in PMC4940876, “Post-paralysis tyrosine kinase inhibition with masitinib abrogates neuroinflammation and slows disease progression in inherited amyotrophic lateral sclerosis” (Journal of Neuroinflammation, 2016).

In this assay the target is T1, CSF-1R (colony-stimulating factor 1 receptor) (Homo sapiens, UniProt P07333).
T1 construct: gene CSF1R; CSF-1R kinase domain (AA 538–972), N-terminus 6HN-tagged, expressed in Sf21 cells
T1 sequence (P07333 538-972): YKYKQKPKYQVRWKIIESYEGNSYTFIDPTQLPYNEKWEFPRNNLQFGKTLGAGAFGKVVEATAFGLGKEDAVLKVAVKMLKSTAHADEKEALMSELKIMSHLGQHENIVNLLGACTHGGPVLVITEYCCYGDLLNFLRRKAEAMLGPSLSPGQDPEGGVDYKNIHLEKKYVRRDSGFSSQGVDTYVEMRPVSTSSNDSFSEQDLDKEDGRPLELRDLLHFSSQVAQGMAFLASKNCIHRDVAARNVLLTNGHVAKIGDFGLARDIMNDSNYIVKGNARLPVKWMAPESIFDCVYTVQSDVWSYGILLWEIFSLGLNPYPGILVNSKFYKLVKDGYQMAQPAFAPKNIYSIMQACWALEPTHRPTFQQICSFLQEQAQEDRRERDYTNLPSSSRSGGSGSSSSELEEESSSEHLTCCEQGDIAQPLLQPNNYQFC
The assay is described as follows: HTRF KinEASE kinase assay with biotinylated poly(Glu4Tyr) peptide, […] ATP. The assay is classed as biochemical. A general note: In TR-FRET formats the signal depends on donor and acceptor labels being close together.

Take `Cc1ccc(NC(=O)c2ccc(CN3CCN(C)CC3)cc2)cc1Nc1nc(-c2cccnc2)cs1` [masitinib]: the IC50 amounted to 0.09 ± 0.035 µM.

By IC50 is commonly meant the concentration that gives 50% inhibition. A low value points to inhibition by little substance.
